US9302967B2, “Substituted cathechols as inhibitors of IL-4 and IL-5 for the treatment of bronchial asthma” (Council of Scientific & Industrial Research, priority 2011, dated 2016)

Tests used:
[1] = tested on: IL-4; test: PHA-stimulated human PBMC, IL-4 in supernatant by Cytometric Bead Array; type: cell-based; conditions: PHA 10 μg/ml, read-out: IC50 inhibitory activity, stimulation-induced IL-4
Procedure: (§1) Normal human peripheral blood mononuclear cells (PBMC) were stimulated with phytohemagglutinin (PHA) 10 μg/ml in the presence and absence of varying concentrations of compounds of formula I and II. Culture supernatants were harvested and IIL-4 and IL-5 cytokines were quantitated by Cytometric Bead Array (CBA™) kit (Becton Dickinson, USA) following manufacturers instructions using a Flow Cytometer (BD LSR, Becton Dickinson) and CBA™ analysis software (Becton Dickinson).

[2] = tested on: IL-5; test: PHA-stimulated human PBMC, IL-5 in supernatant by Cytometric Bead Array; type: cell-based; conditions: Homo sapiens, PHA 10 μg/ml, read-out: IC50 inhibitory activity, stimulation-induced IL-5
Procedure: as §1

Row | IC50 [1] [µM] | IC50 [2] [µM] | melting point [°C] | SMILES
1 | 4 | 4 |  | C=CCc1ccc(OC(C)=O)c(OC(C)=O)c1 [Compound 7, 4-allyl-1,2-phenylene diacetate]
2 | 30 | 30 |  | C=CCc1cccc(O)c1O [Compound 16, 3-allyl-benzene-1,2-diol]
3 | 30 | 35 | 58 to 60 | C=CCc1cccc(OC(C)=O)c1OC(C)=O [Compound 19, 3-allyl-1,2-phenylene diacetate]
